pEC50: −log10 of the molar value. “Also recorded” adds a separate entry of the source.
Legend:
MINK1/MINK = MINK1/MINK (Homo sapiens, UniProt Q8N4C8); conditions: cited from earlier work
TGFBR2 = TGFBR2 (Homo sapiens, UniProt P37173); conditions: cited from earlier work
TGFBR1 = target: T1, TGFBR1 (Homo sapiens, UniProt P36897); conditions: cited from earlier work
T1 sequence (P36897 34-503): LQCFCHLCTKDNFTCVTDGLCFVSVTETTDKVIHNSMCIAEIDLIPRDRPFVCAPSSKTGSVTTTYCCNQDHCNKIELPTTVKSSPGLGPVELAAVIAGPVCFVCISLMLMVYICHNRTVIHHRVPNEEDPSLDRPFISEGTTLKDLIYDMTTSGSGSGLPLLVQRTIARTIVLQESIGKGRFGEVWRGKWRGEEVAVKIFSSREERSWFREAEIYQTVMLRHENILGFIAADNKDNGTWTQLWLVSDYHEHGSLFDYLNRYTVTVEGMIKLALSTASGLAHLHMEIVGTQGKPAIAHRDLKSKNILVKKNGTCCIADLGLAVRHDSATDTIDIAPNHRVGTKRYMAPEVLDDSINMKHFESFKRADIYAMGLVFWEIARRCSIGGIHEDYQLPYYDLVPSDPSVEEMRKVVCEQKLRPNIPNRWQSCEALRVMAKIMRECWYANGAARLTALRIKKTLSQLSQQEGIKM

JAK1(JH2) = target: T2, JAK1(JH2) (Homo sapiens, UniProt P23458); conditions: cited from earlier work
T2 construct: JAK1(JH2)
T2 sequence (P23458 583-855 limits assumed): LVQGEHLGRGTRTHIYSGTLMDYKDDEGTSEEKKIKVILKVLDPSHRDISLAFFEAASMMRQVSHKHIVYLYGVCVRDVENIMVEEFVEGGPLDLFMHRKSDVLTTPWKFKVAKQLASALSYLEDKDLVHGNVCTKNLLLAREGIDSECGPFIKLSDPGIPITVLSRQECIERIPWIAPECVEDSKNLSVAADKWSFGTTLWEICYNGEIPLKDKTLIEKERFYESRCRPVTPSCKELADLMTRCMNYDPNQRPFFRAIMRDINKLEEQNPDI

MAPK9/JNK2 = MAPK9/JNK2 (Homo sapiens, UniProt P45984); conditions: cited from earlier work
Sequence of MAPK9/JNK2 (P45984 whole entry): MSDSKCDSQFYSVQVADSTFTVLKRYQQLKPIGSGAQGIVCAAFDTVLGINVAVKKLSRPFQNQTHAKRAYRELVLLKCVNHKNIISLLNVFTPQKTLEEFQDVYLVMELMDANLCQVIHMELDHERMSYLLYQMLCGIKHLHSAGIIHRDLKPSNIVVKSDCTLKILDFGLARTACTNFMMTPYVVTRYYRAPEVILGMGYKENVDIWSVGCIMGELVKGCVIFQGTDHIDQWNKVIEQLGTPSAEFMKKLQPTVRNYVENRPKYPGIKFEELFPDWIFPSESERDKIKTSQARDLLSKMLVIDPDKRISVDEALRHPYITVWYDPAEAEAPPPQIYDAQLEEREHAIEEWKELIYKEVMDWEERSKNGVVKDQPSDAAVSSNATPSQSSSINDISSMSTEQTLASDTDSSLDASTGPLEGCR

CDC42BPG/DMPK2 = CDC42BPG/DMPK2 (Homo sapiens, UniProt Q6DT37); conditions: cited from earlier work
Sequence of CDC42BPG/DMPK2 (Q6DT37 whole entry): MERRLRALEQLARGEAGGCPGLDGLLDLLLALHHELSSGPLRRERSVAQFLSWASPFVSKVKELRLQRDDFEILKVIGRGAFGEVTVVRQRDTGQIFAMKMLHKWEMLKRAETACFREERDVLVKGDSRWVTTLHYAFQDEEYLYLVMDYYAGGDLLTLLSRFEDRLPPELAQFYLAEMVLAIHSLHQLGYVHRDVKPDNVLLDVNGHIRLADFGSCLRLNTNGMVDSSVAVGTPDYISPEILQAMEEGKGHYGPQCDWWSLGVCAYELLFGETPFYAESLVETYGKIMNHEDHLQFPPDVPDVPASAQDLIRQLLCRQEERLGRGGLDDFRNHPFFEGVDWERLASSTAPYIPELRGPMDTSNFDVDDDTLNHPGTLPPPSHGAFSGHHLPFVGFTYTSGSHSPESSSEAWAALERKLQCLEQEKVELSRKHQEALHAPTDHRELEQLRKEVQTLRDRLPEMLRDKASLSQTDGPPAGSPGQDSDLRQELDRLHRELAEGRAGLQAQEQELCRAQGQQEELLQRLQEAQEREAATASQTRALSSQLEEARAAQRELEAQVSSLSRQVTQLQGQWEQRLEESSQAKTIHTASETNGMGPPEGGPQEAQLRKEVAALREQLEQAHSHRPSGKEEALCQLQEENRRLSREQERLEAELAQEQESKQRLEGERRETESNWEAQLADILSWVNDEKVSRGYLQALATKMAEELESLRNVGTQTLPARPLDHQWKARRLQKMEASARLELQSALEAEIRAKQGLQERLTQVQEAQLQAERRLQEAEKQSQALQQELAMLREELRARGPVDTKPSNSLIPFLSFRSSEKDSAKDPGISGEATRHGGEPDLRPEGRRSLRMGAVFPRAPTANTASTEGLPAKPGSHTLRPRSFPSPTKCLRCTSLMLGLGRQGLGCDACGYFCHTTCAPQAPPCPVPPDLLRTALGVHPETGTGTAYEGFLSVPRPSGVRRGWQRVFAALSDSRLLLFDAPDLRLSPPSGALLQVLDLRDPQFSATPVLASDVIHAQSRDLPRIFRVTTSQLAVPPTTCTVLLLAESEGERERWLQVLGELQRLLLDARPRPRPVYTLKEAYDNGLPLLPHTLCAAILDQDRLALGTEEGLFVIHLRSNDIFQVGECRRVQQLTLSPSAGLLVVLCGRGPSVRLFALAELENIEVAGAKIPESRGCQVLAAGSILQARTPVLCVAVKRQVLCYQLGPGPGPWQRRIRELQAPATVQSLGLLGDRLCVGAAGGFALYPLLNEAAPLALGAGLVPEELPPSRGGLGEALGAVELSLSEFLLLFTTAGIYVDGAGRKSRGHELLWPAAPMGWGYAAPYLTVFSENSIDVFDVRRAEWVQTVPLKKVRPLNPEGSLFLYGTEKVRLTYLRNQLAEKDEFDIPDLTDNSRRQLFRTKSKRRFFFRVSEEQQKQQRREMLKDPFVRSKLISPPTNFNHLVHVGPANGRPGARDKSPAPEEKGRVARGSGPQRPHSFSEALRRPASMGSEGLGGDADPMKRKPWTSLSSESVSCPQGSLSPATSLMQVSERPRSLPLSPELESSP

endogenous TFEB = test: TFEB nuclear translocation, immunocytochemistry high-content imaging; type: cell-based; conditions: for TFEB %: PKIS2 primary screening; for TFEB translocation (in words): SH-SY5Y
MAPK10/JNK3 = MAPK10/JNK3 (Homo sapiens, UniProt P53779); conditions: cited from earlier work
Sequence of MAPK10/JNK3 (P53779 whole entry): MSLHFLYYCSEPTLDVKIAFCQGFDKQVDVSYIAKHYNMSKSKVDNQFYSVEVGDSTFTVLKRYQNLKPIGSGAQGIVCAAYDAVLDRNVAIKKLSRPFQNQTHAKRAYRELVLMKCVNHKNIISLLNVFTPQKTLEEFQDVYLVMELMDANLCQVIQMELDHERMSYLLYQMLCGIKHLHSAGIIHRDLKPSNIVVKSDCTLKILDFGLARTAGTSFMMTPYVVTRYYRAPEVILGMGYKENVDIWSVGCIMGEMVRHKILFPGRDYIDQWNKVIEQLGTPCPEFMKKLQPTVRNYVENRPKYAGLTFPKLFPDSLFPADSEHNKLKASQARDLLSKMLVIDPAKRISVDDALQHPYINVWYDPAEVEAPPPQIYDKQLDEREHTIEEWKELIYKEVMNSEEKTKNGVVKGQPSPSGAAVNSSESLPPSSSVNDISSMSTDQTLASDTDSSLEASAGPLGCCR

STK10/LOK = STK10/LOK (Homo sapiens, UniProt O94804); conditions: cited from earlier work
PRKD2 = target: T3, PRKD2 (Homo sapiens, UniProt Q9BZL6); conditions: cited from earlier work
T3 sequence (Q9BZL6 1-878): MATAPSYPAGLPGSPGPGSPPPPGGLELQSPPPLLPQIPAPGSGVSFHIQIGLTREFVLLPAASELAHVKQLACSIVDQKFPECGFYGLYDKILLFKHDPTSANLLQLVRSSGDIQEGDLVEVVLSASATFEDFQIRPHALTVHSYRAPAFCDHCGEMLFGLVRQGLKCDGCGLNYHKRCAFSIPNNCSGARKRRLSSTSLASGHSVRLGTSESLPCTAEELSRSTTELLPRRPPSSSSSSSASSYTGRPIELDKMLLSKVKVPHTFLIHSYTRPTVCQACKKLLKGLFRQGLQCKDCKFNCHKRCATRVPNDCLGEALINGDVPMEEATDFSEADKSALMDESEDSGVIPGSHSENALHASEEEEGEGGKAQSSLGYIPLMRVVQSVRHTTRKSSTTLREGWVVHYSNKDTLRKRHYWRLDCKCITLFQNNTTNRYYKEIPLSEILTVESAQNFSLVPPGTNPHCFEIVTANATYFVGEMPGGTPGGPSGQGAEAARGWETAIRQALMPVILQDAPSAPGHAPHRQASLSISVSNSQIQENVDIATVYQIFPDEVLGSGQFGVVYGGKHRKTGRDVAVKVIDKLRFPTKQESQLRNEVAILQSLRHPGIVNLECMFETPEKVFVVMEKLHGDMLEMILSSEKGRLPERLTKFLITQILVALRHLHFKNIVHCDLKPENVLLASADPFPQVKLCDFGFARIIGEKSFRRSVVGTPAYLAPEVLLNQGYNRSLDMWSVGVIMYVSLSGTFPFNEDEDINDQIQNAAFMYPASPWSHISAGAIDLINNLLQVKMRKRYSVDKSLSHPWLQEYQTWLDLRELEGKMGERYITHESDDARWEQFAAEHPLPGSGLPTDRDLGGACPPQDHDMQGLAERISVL

ALK5/TGFBR1 = conditions: cited from earlier work
TFEB or TFE3 = test: EC50 line in the head of Table S5 (cellular activity of the analogs, assay not given); type: cell-based; conditions: assay not named, unit printed only in the first two cells
Protocol: Figure S5. Activity of quinazoline analogs. […] Compounds were screen at 24-h treatment time up to 5 µM concentration. Data for each compound is represented on single graphs with their structures shown. n=1 for all above assays, mean±s.d. (B) Representative western blot of TFEB levels following treatment of compounds followed by fractionation into cytoplasmic (C) and nuclear (N) compartments. Successful fractionation represented by enrichment of GAPDH in the cytoplasmic fraction and LMNA (lamin A/C) in the nuclear compartment. (C) The levels of nuclear/cytoplasmic TFEB were quantified and presented as a ratio. A paired one-way ANOVA with a Holm-Šídák's multiple comparisons test was performed relative to DMSO for comparison between each compound treatments (n=3).

Sequence of TGFBR2 (P37173 23-567): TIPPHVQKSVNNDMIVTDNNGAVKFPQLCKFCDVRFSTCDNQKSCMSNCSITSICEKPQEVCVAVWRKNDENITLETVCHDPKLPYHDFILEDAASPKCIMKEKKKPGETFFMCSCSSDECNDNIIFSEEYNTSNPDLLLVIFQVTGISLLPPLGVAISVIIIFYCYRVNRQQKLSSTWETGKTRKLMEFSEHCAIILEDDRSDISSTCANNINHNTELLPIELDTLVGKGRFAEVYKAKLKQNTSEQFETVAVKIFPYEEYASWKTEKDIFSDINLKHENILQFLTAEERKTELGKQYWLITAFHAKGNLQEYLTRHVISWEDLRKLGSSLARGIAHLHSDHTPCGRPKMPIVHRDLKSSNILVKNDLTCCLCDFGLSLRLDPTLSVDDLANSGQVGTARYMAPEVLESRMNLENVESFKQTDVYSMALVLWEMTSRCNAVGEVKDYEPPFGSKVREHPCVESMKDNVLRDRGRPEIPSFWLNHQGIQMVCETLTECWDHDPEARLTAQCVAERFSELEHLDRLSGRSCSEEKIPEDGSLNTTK
Sequence of MINK1/MINK (Q8N4C8 whole entry): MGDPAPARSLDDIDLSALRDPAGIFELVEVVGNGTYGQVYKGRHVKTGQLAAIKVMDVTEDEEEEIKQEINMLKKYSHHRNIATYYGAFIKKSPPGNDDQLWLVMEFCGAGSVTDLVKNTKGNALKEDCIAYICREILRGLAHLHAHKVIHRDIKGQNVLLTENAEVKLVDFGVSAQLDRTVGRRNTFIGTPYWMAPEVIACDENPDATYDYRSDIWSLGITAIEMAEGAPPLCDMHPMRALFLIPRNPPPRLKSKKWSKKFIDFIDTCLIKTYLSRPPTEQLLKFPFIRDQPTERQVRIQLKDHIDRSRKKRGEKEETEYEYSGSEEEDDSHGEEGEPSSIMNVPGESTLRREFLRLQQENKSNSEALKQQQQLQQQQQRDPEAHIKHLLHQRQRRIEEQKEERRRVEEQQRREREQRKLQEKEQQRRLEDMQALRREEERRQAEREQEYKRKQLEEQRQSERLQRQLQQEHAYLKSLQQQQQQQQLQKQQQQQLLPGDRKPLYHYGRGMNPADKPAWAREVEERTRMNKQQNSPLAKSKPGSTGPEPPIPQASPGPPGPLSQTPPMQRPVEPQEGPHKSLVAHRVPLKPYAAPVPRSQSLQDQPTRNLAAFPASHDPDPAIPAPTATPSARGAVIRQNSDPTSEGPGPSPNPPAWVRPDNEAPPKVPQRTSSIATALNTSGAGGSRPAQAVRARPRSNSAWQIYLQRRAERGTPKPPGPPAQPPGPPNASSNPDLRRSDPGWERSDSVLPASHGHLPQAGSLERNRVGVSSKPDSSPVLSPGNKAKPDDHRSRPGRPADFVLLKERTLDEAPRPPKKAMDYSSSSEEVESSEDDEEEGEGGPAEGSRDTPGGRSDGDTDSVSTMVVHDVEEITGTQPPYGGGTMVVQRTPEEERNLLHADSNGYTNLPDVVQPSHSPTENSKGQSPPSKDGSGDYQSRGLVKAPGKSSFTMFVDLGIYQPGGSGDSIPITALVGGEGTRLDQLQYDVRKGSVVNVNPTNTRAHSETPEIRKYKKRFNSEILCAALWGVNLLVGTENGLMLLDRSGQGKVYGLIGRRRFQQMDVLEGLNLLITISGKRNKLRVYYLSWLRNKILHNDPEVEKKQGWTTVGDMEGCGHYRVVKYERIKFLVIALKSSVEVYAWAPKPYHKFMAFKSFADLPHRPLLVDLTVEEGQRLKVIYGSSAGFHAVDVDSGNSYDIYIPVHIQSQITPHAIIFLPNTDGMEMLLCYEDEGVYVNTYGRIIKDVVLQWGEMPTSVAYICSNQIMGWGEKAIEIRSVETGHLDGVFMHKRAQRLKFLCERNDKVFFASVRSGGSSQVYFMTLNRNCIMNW

Compound	KINOMEscan binding MINK1/MINK (MINK1/MINK)	KINOMEscan binding TGFBR2 (TGFBR2)	KINOMEscan binding TGFBR1 (TGFBR1)	KINOMEscan binding JAK1(JH2) (JAK1(JH2))	KINOMEscan binding MAPK9/JNK2 (MAPK9/JNK2)	KINOMEscan binding CDC42BPG/DMPK2 (CDC42BPG/DMPK2)	TFEB % (endogenous TFEB)	KINOMEscan binding MAPK10/JNK3 (MAPK10/JNK3)	KINOMEscan binding STK10/LOK (STK10/LOK)	KINOMEscan binding PRKD2 (PRKD2)	TFEB translocation (in words) (endogenous TFEB; 24 h treatment)	TGFBR1 binding (ALK5/TGFBR1)	pEC50 (TFEB or TFE3)	TFEB translocation (in words) (endogenous TFEB; 48 h treatment)	KINOMEscan TGFBR2 (TGFBR2; TGFBR2, Published KINOMEscan, ref original PKIS2 published data)	KINOMEscan JAK1(JH2domain-pseudokinase) (JAK1(JH2); JAK1(JH2domain-pseudokinase), Published KINOMEscan, ref original PKIS2 published data)	KINOMEscan CDC42BPG/DMPK2 (CDC42BPG/DMPK2)	KINOMEscan PRKD2 (PRKD2; PRKD2, Published KINOMEscan, ref original PKIS2 published data)
Cc1ccc(-c2nc(Nc3ccncc3)c3ccccc3n2)s1 [GSK189015]	2%	21%	6%	38%	19%	13%	4.14%	14%	1%	14%	–	–	–	–	–	–	–	–
COc1ccc2nc(-c3cccc(C)n3)nc(Nc3ccncc3)c2c1 [GSK204919]	30%	10%	–	80%	60%	91.1%	4.22%	36%	0%	98.8%	did not show TFEB and TFE3 activation	–	–	–	–	–	–	–
Cc1cccc(-c2cc(Nc3ccncc3)c3ccccc3n2)n1 [GSK223675]	–	0%	–	5%	–	7%	7.90%	–	–	96%	–	–	–	–	–	–	–	–
Cc1cccc(-c2nc(C)cc(Nc3ccncc3)n2)n1 [GSK257997]	6%	4%	100%	0%	43%	89%	2.98%	32%	0%	80%	did not show TFEB and TFE3 activation	0.025 µM	–	–	–	–	–	–
Cc1cccc(-c2nc(Nc3ccncc3)c3ccccc3n2)n1 [GW855857]	–	95.7%	–	74%	–	76%	6.50%	–	–	99%	–	–	–	–	–	–	–	–
Cc1cccc(-c2nc(Nc3ccc4nn[nH]c4c3)c3ccccc3n2)n1 [GW867587]	0%	0%	32%	52%	0%	0%	14.22%	0%	0%	98.1%	–	0.59 µM	–	–	–	–	–	–
Cc1cccc(-c2nc(Nc3ccc4ncsc4c3)c3ccccc3n2)n1 [GW867588]	0%	0%	55%	62%	8%	9%	27.23%	0%	27%	99.8%	–	–	–	–	–	–	–	–
Cc1csc(-c2nc(Nc3ccncc3)c3ccccc3n2)n1 [GW869640]	–	88%	–	74%	–	35%	2.75%	–	–	78%	–	–	–	–	–	–	–	–
Cc1cccc(-c2nc(Nc3ccncc3)c3sccc3n2)n1 [GW869641]	–	95.6%	–	90.2%	–	98.5%	20.32%	–	–	99.6%	–	–	–	–	–	–	–	–
Cc1cc(Nc2nc(-c3cccc(C)n3)nc3ccccc23)ccn1 [GW872411]	1%	0%	83%	81%	14%	2%	5.91%	0%	0%	99.9%	–	–	–	–	–	–	–	–
Clc1cccc(-c2nc(Nc3ccncc3)c3ccccc3n2)c1 [GW873004]	–	17%	–	16%	–	84%	4.68%	–	–	45%	–	0.65 µM	–	–	–	–	–	–
Cc1cccc(-c2nc(Nc3cccc(C(N)=O)c3)c3ccccc3n2)n1 [GW876019]	–	15%	–	78%	–	0%	7.94%	–	–	66%	–	–	–	–	–	–	–	–
Cc1cccc(-c2nc(Nc3ccc4c(cnn4C)c3)c3ccccc3n2)n1 [GW876731]	–	0%	–	16%	–	22%	18.65%	–	–	99.6%	–	–	–	–	–	–	–	–
Cc1cccc(-c2nc(Nc3ccc4ncsc4c3)c3ccccc3n2)n1 [NK140]	–	–	–	–	–	–	–	–	–	–	modest TFEB and TFE3 translocation	–	6.19	induced; also recorded: elevated TFEB and TFE3 translocation	–	–	–	–
Cc1cccc(-c2nc(Nc3ccc4nn(C)cc4c3)c3ccccc3n2)n1 [NK167]	–	–	–	–	–	–	–	–	–	–	–	–	6.00	–	–	–	–	–
Cc1cccc(-c2nc(Nc3ccncc3)c3ccccc3n2)n1 [NK215]	–	–	–	–	–	–	–	–	–	–	–	–	–	–	95.7	74	76	99
Cc1cccc(-c2nc(N(C)c3ccc4ncsc4c3)c3ccccc3n2)n1 [NK-161]	–	–	–	–	–	–	–	–	–	–	–	–	5.96	–	–	–	–	–
